Reference: patent publication US6660246B1, “Ligands and metal complexes thereof” (Bracco International, BV, priority 1994, dated 2003)
Where a name gives a salt, the structure may show the parent alone.

melting point [°C] | SMILES
175 to 177 | CN/N=C(\C)C(C)(C)NCCCNC(C)(C)/C(C)=N/O (as salt: hydrochloride) [Example 2, 3,3,9,9-Tetramethyl-4,8-diazaundecane-2,10-dione 2-(2-Methylhydrazone) 10-Oxime]
95 to 96 | C/C(=N\O)C(C)(C)NCCCNC(C)(C)/C(C)=N/NC(=O)c1ccccc1 (as salt: trifluoroacetate) [Example 4, 3,3,9,9-Tetramethyl-4,8-diazaundecane-2,10-dione 2-(2-Benzoylhydrazone) 10-Oxime]
125 to 126 | C/C(=N\N)C(C)(C)NCCCNC(C)(C)/C(C)=N/O [Example 1, 3,3,9,9-Tetramethyl-4,8-diazaundecane-2,10-dione 2-Hydrazone 10-Oxime]
145 to 146 | C/C(=N\O)C(C)(C)NCCCNC(C)(C)/C(C)=N/Nc1ccccc1 [Example 3, 3,3,9,9-Tetramethyl-4,8-diazaundecane-2,10-dione 2-(2-Phenyl-hydrazone) 10-Oxime]
95 to 96 | C/C(=N\N)C(C)(C)NCCCNC(C)(C)/C(C)=N/N [Example 5, 3,3,9,9-Tetramethyl-4,8-diazaundecane-2,10-dione Bishydrazone]
95 to 97 | C/C(=N\O)C(C)(C)NCCNC(C)(C)/C(C)=N/Nc1ccccc1 [Example 6, 3,3,8,8-Tetramethyl-4,8-diazadecane-2,9-dione 2-(2-Phenylhydrazone) 9-Oxime]
